Reference: patent US5393779A, “Chemical compounds” (Zeneca Limited, priority 1991, dated 1995)

What was measured:
[1] = test system: rat adipocytes; test: Rat adipocyte lipolysis test; format: cell-based, rats; details: 1.5 h, rat epididymal adipocytes, 90 minutes, free fatty acids, isoprenaline 3×10^-6 M, read-out: Efficacy (maximal effect on lipolysis as a percentage of the maximal effect of isoprenaline)
Experimental: Epididymal adipose tissue was excised from male rats and adipocytes prepared by digestion with collagenase. Cells were isolated by flotation and washed four times with Krebs Ringer Bicarbonate buffer (KRB), finally washing in KRB containing 2% bovine serum albumin (KRB/BSA). Aliquots of the cell suspension were incubated in the presence of a range of concentrations of the test compound in a total volume of 1 ml KRB/2% BSA containing 0.1 mg/ml ascorbate in an atmosphere of 95%O2,5%CO2. Incubations were also carried out in the presence of a concentration of isoprenaline (3×10^-6 M) known to have a maximal effect on lipolysis. Control incubations were carried out in KRB/2% BSA containing ascorbate. The incubations were terminated after 90 minutes by placing the tubes on ice, and aliquots of infranatant removed for assay of free fatty acids which were measured using a WAKO NEFA-C assay kit (Alpha Laboratories). Lipolytic activity of the compounds was assessed by determining the increase in free fatty acid concentrations caused by the compounds compared to controls. The maximal effects (efficacy) of the compounds were determined and expressed as percentage of the maximal effect of isoprenaline.
Efficacy is the maximal effect of the test compound on lipolysis expressed as a percentage of the maximal effect of isoprenaline.

[2] = test system: Rats; test: Test (b): heart rate in rats, D500 dose and selectivity index (SI); format: in vivo
Experimental: (b) Rats are adapted to a thermoneutral environment (29° C.) for 2 weeks in order to decrease their capacity for BAT mediated non-shivering thermogenesis. During the final 5 days the animals are trained to use an apparatus for measuring heart rate non-invasively via foot-pad electrodes connected to an ECG integrator giving a continuous read-out of heart rate. A test compound is administered sub-cutaneously or orally at the ED50 determined in test (a), and heart rate is determined 15-30 minutes after dosing. The procedure is then repeated in subsequent tests using increasing multiples of the ED50 determined in test (a) until the heart rate (HR) reaches or exceeds 500 beats per minute, or until the dose reaches 100 times the ED50 determined in test (a). The dose necessary to produce a heart rate of 500 beats per minute (D500 dose) is estimated.
The ratio of D500 to ED50 in test (a) can be defined as the selectivity index (SI) and provides a measure of the selectivity of the compound for BAT as opposed to the cardiovascular system.

[3] = test system: brown adipose tissue (BAT) mitochondria; test: Test (a): GDP binding in BAT mitochondria of cold-adapted rats as a measure of thermogenic activation; format: in vivo; details: BAT removed one hour after dosing; for ED50: Rattus norvegicus, 1 h, oral, relative to isoprenaline 1 mgkg^-1, read-out: oral ED50 (dose producing 50% of the isoprenaline effect on GDP binding)
Experimental: (a) Rats are cold adapted at 4° C. for 5 days to increase their capacity for thermogenesis. They are then transferred to a warm environment of 25° C. for 2 days. On the following day, a test compound is administered sub-cutaneously or orally. Animals are sacrificed one hour later and the interscapular, brown adipose tissue (BAT) pad is removed. BAT mitochondria are prepared by differential centrifugation and GDP binding is determined (Holloway et al., International Journal of Obesity, 1984, 8, 295) as a measure of thermogenic activation. Each test includes a control which is dosed with the solution/suspension vehicle only and a positive control which is dosed with isoprenaline (as its sulphate) at 1 mgkg^-1. Test compounds are routinely dosed at 0.1, 0.3, 1.0, 3.0, and 10 […] and results expressed in terms of the effect on GDP binding produced by the positive control. […] Compounds are considered active in this test if they cause a significant elevation in GDP binding as compared to controls.

[4] = test system: Rats; test: Test (c): metabolic rate by closed-circuit oxygen consumption in rats; format: in vivo; details: 1mgkg^-1 p.o.
Experimental: (c) Rats are kept at 23° C. for at least two days, then fasted overnight. On the following day, the basal metabolic rate of the animals is determined using a close-circuit oxygen consumption apparatus of the type described by Arundel et al., 1984, J. Appl. Physiol. Respirat. Environ. Exercise Physiol., 1984, 57 (5) 1591-1593. The rats are then dosed (orally) with test compound at about 1 mgkg^-1 as a solution or suspension in 0,025% w/v Polysorbate 80 (0.5 ml/100 g). Metabolic rate is then determined for at least one hour after dosing. Compounds are considered active in this test if they cause a significant increase in metabolic rate as compared to control animals (Student's t test: p <0.05) dosed only the solution or suspension vehicle.

[5] = test system: Male rats; test: Oral glucose tolerance test; format: in vivo; details: for Plasma glucose: 5 mg/Kg p.o., mean±S.E.M., six rats
Experimental: Male rats (125-150 g) were fasted for 24 hours. After fasting, a group of six rats was anaesthetised and a cardiac blood sample taken. Other groups of rats were then dosed with the compound of Example 1 (5.0 mg/Kg p.o.) dissolved in an aqueous solution of 0.025% polysorbate. Control rats were dosed with polysorbate solution alone. The volume of solution dosed was 0.5 ml/100 g body weight. 60 minutes subsequent to dosing six control and six treated rats were anaesthetised and cardiac samples taken. The remaining rats were given an oral glucose load (1 g/Kg) dosed as a 20% solution of D-glucose (0.5 ml/100 g). Groups of six rats for each control and treatment were then anaesthetised and bled at 20, 60 and 120 minutes after the glucose load. Plasma glucose and insulin were determined using standard methods.
The results are mean±S.E.M. of observations in six rats in each group. Student's t test was used to test the significance of the difference between control and treated groups.

[6] = test system: C57BL/KsJ (db/db) mice; test: Effects on blood glucose levels in insulin resistant db/db mice; format: in vivo; details: 50 mg/kg diet
Experimental: Effects on blood glucose levels in insulin resistant db/db mice C57BL/KsJ (db/db) mice were divided into two groups and allowed free access to control diet or diet containing the compound of Example 1 at a concentration of 50 mg/kg diet. A group of control (+/+) mice was also included in the experiment. After 16 days treatment, blood samples were taken from the mice for determination of blood glucose levels.
Results are mean±S.E.M. of observations in groups of 15 mice. Student's t test was used to test the significance of the difference between control (+/+) and treated (db/db) groups.

SMILES: O=C(O)COc1ccc(OCCNCC(O)COc2ccccc2)cc1 (stereo not drawn) [4-[2-(2-Hydroxy-3-phenoxypropylamino)-ethoxy]phenoxyacetic acid, reference compound]
- Emax [1]: 26%

SMILES: CC(C)NCC(O)c1ccc(O)c(O)c1 (stereo not drawn) [isoprenaline, reference compound]
- SI (selectivity index, ratio of D500 to ED50 in test (a)) ([2]; route not stated): 0.06

SMILES: O=C(O)COc1ccc(OCCNCC(O)c2ccccc2)cc1 (stereo not drawn) [4-[2-(2-Hydroxy-2-phenylethylamino)-ethoxy]phenyloxyacetic acid, reference compound]
- ED50 [3]: > 3 mg/kg

SMILES: O=C(O)Cc1ccc(OCCNC[C@H](O)c2ccccc2)cc1 [Example 1, (R)-4-[2-(2-Hydroxy-2-phenylethylamino)ethoxy]phenylacetic acid]
- oral ED50 (dose producing 50% of the isoprenaline effect on GDP binding) ([3]; relative to isoprenaline 1 mgkg^-1): 0.55 mgkg^-1
- ED50 [3]: 0.55 mg/kg
- SI (selectivity index, ratio of D500 to ED50 in test (a)) ([2]; oral): > 50
- metabolic rate (oxygen consumption) [4]: 6.53 ml O2 min^-l (Kg^O.75)
- Plasma glucose ([5]; 0 mins relative to oral glucose load): 3.52 ± 0.07 mM
- Plasma glucose ([5]; 20 mins after oral glucose load (1 g/Kg)): 5.72 ± 0.24 mM
- Plasma glucose ([5]; 60 mins after oral glucose load (1 g/Kg)): 5.32 ± 0.24 mM
- Plasma glucose ([5]; 120 mins after oral glucose load (1 g/Kg)): 5.43 ± 0.31 mM
- antihyperglycaemic activity (in words) ([5]; 5.0 mg/Kg p.o., rats): marked antihyperglycaemic activity
- effect on blood glucose levels (in words) ([6]; 16 days): normalises blood glucose levels
- Blood glucose ([6]; after 16 days treatment, mean±S.E.M., 15 mice): 5.3 ± 0.46 mM
- Emax [1]: 100%
